Reference: patent publication US20020137929A1, “1 - (3-heterocyclylphenyl) isothiourea, -isourea, -guanidine and -amidine herbicidal agents” (Intellectual Property Department, BASF Aktiengesellschaft, priority 1998, published 2002)

What was measured:
ABUTH (Velvetleaf) = assay: Postemergence herbicidal evaluation; assay type: in vivo, Abutilon theophrasti; conditions: postemergence
Summary of the method: (§1)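 Scores (0–9) reflect plant stand, vigor, malformation, size, chlorosis and general appearance relative to control, read 4 to 5 weeks after treatment and averaged where tests were repeated. Application: about 0.0156–0.500 kg/ha sprayed at 40 psi onto two-week seedlings.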

[1] = test system: CHEAL (Lambsquarters, Common); assay: Postemergence herbicidal evaluation; assay type: in vivo, Chenopodium album; conditions: postemergence
Summary of the method: as §1

SETVI (Foxtail, Green) [2] = assay: Postemergence herbicidal evaluation; assay type: in vivo, Setaria viridis; conditions: postemergence
Summary of the method: as §1

[3] = test system: GLXMAW (Soybean, Williams); assay: Postemergence herbicidal evaluation; assay type: in vivo, Glycine max, (L.) Merr. cv Williams; conditions: postemergence
Summary of the method: as §1

ORYSAT (Rice, Tebonnet) = assay: Postemergence herbicidal evaluation; assay type: in vivo, Oryza sativa, (L.) Tebonnet; conditions: postemergence
Summary of the method: as §1

[4] = test system: TRZAWR (Wheat, Winter, cv Riband); assay: Postemergence herbicidal evaluation; assay type: in vivo, Triticum aestivum; conditions: postemergence
Summary of the method: as §1

ZEAMX (Corn, Field) = assay: Postemergence herbicidal evaluation; assay type: in vivo, Zea mays; conditions: postemergence
Summary of the method: as §1

AMBEL (Ragweed, Common) = assay: Preemergence herbicidal evaluation; assay type: in vivo, Ambrosia artemisifolia; conditions: rated 4-5 weeks after treatment
Summary of the method: (§2)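 Scores use a 0–9 visual scale covering stand, vigor, malformation, size and chlorosis relative to controls, rated four to five weeks after treatment. Before emergence, soil-planted seeds were sprayed with compound in aqueous acetone at roughly 0.0156–0.500 kg/ha and held in the greenhouse.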

GALAP (Galium) = assay: Preemergence herbicidal evaluation; assay type: in vivo, Galium aparine; conditions: rated 4-5 weeks after treatment
Summary of the method: as §2

SETVI (Foxtail, Green) [5] = assay: Preemergence herbicidal evaluation; assay type: in vivo, Setaria viridis; conditions: rated 4-5 weeks after treatment
Summary of the method: as §2

CYPIR (Rice Flatsedge) = assay: Preemergence weed control under flooded paddy conditions; assay type: in vivo, Cyperus iria; conditions: rated 3-4 weeks after treatment
Summary of the method: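 Ratings on a 0-9 visual scale cover stand, vigor, malformation, size, chlorosis and overall appearance relative to a control, taken three to four weeks post-treatment. Application was into flood water over freshly sown silt loam at roughly 0.0313 to 0.500 kg/ha.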

[6] = test system: ECHORC (Watergrass (Calif.)); assay: Postemergence weed control under flooded paddy conditions; assay type: in vivo, Echinochloa oryzoides; conditions: postemergence weeds, 3-4 weeks after treatment
Summary of the method: (§3)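 Flood-water application, about 0.0313–0.500 kg/ha a.i. in aqueous/acetone 50/50 v/v; water depth 1.5–3 cm throughout. Weeds 3–5 cm, rice 1.5–2.5 leaf. Greenhouse; 0–9 visual rating vs control at 3–4 wk.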

CYPSE (Flatsedge) = assay: as above; assay type: in vivo, Cyperus serotinus; conditions: postemergence weeds, 3-4 weeks after treatment
Summary of the method: as §3

[7] = test system: SAGPY (Arrowhead (Pygmaea)); assay: as above; assay type: in vivo, Sagittaria pygmaea; conditions: postemergence weeds, 3-4 weeks after treatment
Summary of the method: as §3

Structure (SMILES): CCOC(=O)CN1C(=O)C(CC(=O)O)S/C1=N/c1cc(-n2c(=O)cc(C(F)(F)F)n(C)c2=O)c(F)cc1Cl (stereo not drawn) [Compound 16]
- ABUTH herbicidal rating (ABUTH (Velvetleaf); rate 0.0157 kg/ha): 9.0
- ABUTH herbicidal rating (ABUTH (Velvetleaf); rate 0.0313 kg/ha): 9.0
- ABUTH herbicidal rating (ABUTH (Velvetleaf); rate 0.0625 kg/ha): 9.0
- ABUTH herbicidal rating (ABUTH (Velvetleaf); rate 0.1250 kg/ha): 9.0
- ABUTH herbicidal rating (ABUTH (Velvetleaf); rate 0.2500 kg/ha): 9.0
- CHEAL herbicidal rating ([1]; rate 0.0157 kg/ha): 9.0
- CHEAL herbicidal rating ([1]; rate 0.0313 kg/ha): 8.2
- CHEAL herbicidal rating ([1]; rate 0.0625 kg/ha): 9.0
- CHEAL herbicidal rating ([1]; rate 0.1250 kg/ha): 9.0
- CHEAL herbicidal rating ([1]; rate 0.2500 kg/ha): 9.0
- SETVI herbicidal rating (SETVI (Foxtail, Green) [2]; rate 0.0157 kg/ha): 9.0
- SETVI herbicidal rating (SETVI (Foxtail, Green) [2]; rate 0.0313 kg/ha): 7.8
- SETVI herbicidal rating (SETVI (Foxtail, Green) [2]; rate 0.0625 kg/ha): 9.0
- SETVI herbicidal rating (SETVI (Foxtail, Green) [2]; rate 0.1250 kg/ha): 9.0
- SETVI herbicidal rating (SETVI (Foxtail, Green) [2]; rate 0.2500 kg/ha): 9.0
- GLXMAW herbicidal rating ([3]; rate 0.0157 kg/ha): 9.0
- GLXMAW herbicidal rating ([3]; rate 0.0313 kg/ha): 8.6
- GLXMAW herbicidal rating ([3]; rate 0.0625 kg/ha): 8.9
- GLXMAW herbicidal rating ([3]; rate 0.1250 kg/ha): 9.0
- GLXMAW herbicidal rating ([3]; rate 0.2500 kg/ha): 9.0
- ORYSAT herbicidal rating (ORYSAT (Rice, Tebonnet); rate 0.0157 kg/ha): 3.0
- ORYSAT herbicidal rating (ORYSAT (Rice, Tebonnet); rate 0.0313 kg/ha): 4.2
- ORYSAT herbicidal rating (ORYSAT (Rice, Tebonnet); rate 0.0625 kg/ha): 5.7
- ORYSAT herbicidal rating (ORYSAT (Rice, Tebonnet); rate 0.1250 kg/ha): 7.3
- ORYSAT herbicidal rating (ORYSAT (Rice, Tebonnet); rate 0.2500 kg/ha): 7.5
- TRZAWR herbicidal rating ([4]; rate 0.0157 kg/ha): 7.5
- TRZAWR herbicidal rating ([4]; rate 0.0313 kg/ha): 6.5
- TRZAWR herbicidal rating ([4]; rate 0.0625 kg/ha): 7.5
- TRZAWR herbicidal rating ([4]; rate 0.1250 kg/ha): 7.9
- TRZAWR herbicidal rating ([4]; rate 0.2500 kg/ha): 8.5
- ZEAMX herbicidal rating (ZEAMX (Corn, Field); rate 0.0157 kg/ha): 8.0
- ZEAMX herbicidal rating (ZEAMX (Corn, Field); rate 0.0313 kg/ha): 8.1
- ZEAMX herbicidal rating (ZEAMX (Corn, Field); rate 0.0625 kg/ha): 8.4
- ZEAMX herbicidal rating (ZEAMX (Corn, Field); rate 0.1250 kg/ha): 8.7
- ZEAMX herbicidal rating (ZEAMX (Corn, Field); rate 0.2500 kg/ha): 9.0
- AMBEL preemergence herbicidal rating (AMBEL (Ragweed, Common); rate 0.0156 kg/ha): 2.3
- AMBEL preemergence herbicidal rating (AMBEL (Ragweed, Common); rate 0.0313 kg/ha): 4.5
- AMBEL preemergence herbicidal rating (AMBEL (Ragweed, Common); rate 0.0625 kg/ha): 7.8
- AMBEL preemergence herbicidal rating (AMBEL (Ragweed, Common); rate 0.1250 kg/ha): 8.5
- AMBEL preemergence herbicidal rating (AMBEL (Ragweed, Common); rate 0.2500 kg/ha): 8.9
- AMBEL preemergence herbicidal rating (AMBEL (Ragweed, Common); rate 0.5000 kg/ha): 9.0
- GALAP preemergence herbicidal rating (GALAP (Galium); rate 0.0156 kg/ha): 1.2
- GALAP preemergence herbicidal rating (GALAP (Galium); rate 0.0313 kg/ha): 2.0
- GALAP preemergence herbicidal rating (GALAP (Galium); rate 0.0625 kg/ha): 4.8
- GALAP preemergence herbicidal rating (GALAP (Galium); rate 0.1250 kg/ha): 6.4
- GALAP preemergence herbicidal rating (GALAP (Galium); rate 0.2500 kg/ha): 8.2
- GALAP preemergence herbicidal rating (GALAP (Galium); rate 0.5000 kg/ha): 9.0
- SETVI preemergence herbicidal rating (SETVI (Foxtail, Green) [5]; rate 0.0156 kg/ha): 0.2
- SETVI preemergence herbicidal rating (SETVI (Foxtail, Green) [5]; rate 0.0313 kg/ha): 1.0
- SETVI preemergence herbicidal rating (SETVI (Foxtail, Green) [5]; rate 0.0625 kg/ha): 3.7
- SETVI preemergence herbicidal rating (SETVI (Foxtail, Green) [5]; rate 0.1250 kg/ha): 7.5
- SETVI preemergence herbicidal rating (SETVI (Foxtail, Green) [5]; rate 0.2500 kg/ha): 8.5
- SETVI preemergence herbicidal rating (SETVI (Foxtail, Green) [5]; rate 0.5000 kg/ha): 8.9
- Herbicidal rating CYPIR (CYPIR (Rice Flatsedge); 0.0313 kg/ha): 0.0
- Herbicidal rating CYPIR (CYPIR (Rice Flatsedge); 0.0625 kg/ha): 0.0
- Herbicidal rating CYPIR (CYPIR (Rice Flatsedge); 0.1250 kg/ha): 4.0
- Herbicidal rating CYPIR (CYPIR (Rice Flatsedge); 0.2500 kg/ha): 9.0
- Herbicidal rating ECHORC ([6]; rate 0.0313 kg/ha): 0.0
- Herbicidal rating ECHORC ([6]; rate 0.0625 kg/ha): 0.0
- Herbicidal rating ECHORC ([6]; rate 0.1250 kg/ha): 0.0
- Herbicidal rating ECHORC ([6]; rate 0.2500 kg/ha): 0.0
- Herbicidal rating CYPSE (CYPSE (Flatsedge); rate 0.0313 kg/ha): 0.0
- Herbicidal rating CYPSE (CYPSE (Flatsedge); rate 0.0625 kg/ha): 0.0
- Herbicidal rating CYPSE (CYPSE (Flatsedge); rate 0.1250 kg/ha): 0.0
- Herbicidal rating CYPSE (CYPSE (Flatsedge); rate 0.2500 kg/ha): 0.0
- Herbicidal rating SAGPY ([7]; rate 0.0313 kg/ha): 0.0
- Herbicidal rating SAGPY ([7]; rate 0.0625 kg/ha): 0.0
- Herbicidal rating SAGPY ([7]; rate 0.1250 kg/ha): 0.0
- Herbicidal rating SAGPY ([7]; rate 0.2500 kg/ha): 0.0
